Earlier results in patent US11712474B2, “Reduction of post-surgery cancer metastasis by combination of cannabidiol and NR2F6 inhibition” (priority 2019, dated 2023).
Read-outs that look alike come from different tables or passages of the source.

Legend:
[1] = test system: NOD mice
[2] = test system: mitogen-activated human peripheral blood mononuclear cells (PBMC)
[3] = cells of CBD-treated mice vs untreated control mice

Row | SMILES | insulitis, histological examination of pancreatic islets ([1]; CBD-treated NOD mice) | plasma levels of pro-inflammatory cytokines IFN-gamma and TNF-alpha ([1]; CBD-treated NOD mice) | incidence of diabetes ([1]; CBD-treated NOD mice, 86% in non-treated control mice) [%] | Th1-associated cytokine production of in vitro activated T-cells and peritoneal macrophages [1, 3] | production of Th2-associated cytokines IL-4 and IL-10 [1, 3] | IL-2 secretion [2] | increase of the concentration of measurable IFN [2] [%] | measurable quantity of IL-1 [2] | measurable quantity of TNF [2] | synthesis and/or release of IFN ([2]; high concentrations, 5-20 micrograms/ml) | synthesis and/or release of IFN [2]
1 | C=C(C)[C@@H]1CCC(C)=C[C@H]1c1c(O)cc(CCCCC)cc1O [CBD, cannabidiol] | significantly reduced | significant reduction | 30 | significantly reduced | increased | no effect | 68 | decrease | decrease | completely blocked | –
2 | CCCCCc1cc(O)c2c(c1)OC(C)(C)[C@@H]1CCC(C)=C[C@@H]21 [THC, delta-9-tetrahydrocannabinol] | – | – | – | – | – | no effect | 139 | – | – | – | completely blocked
